Source: patent US20230255910A1, “USE OF A CINNAMEIN COMPOSITION FOR THE TREATMENT OF GLYCINE ENCEPHALOPATHY AND UREA CYCLE DISORDERS” (Rush University Medical Center, priority 2020, published 2023)

Experiments:
[1] = test system: lenti-GLDC shRNA-insulted mice; assay: Open field test of locomotor activities in lenti-GLDC shRNA-insulted mice; format: in vivo, C57/BL6 mice; conditions: 50 mg/kg body wt/d daily via gavage, after 10 d of treatment, FIG. 1A-D
Description: (§1) C57/BL6 mice (8-10 week old) received lentiviral GLDC shRNA (1×107 IFU/mouse in 100 μl HBSS) once via tail-vein injection. Therefore, control mice also received 100 μl HBSS via tail-vein. From 7 d after lenti-GLDC shRNA injection, mice were treated with cinnamein (50 mg/kg body wt/d) and cinnamic acid (50 mg/kg body wt/d) daily via gavage. After 10 d of treatment, locomotor activities were monitored by open field (FIG. 1A, heat map; FIG. 1B, distance traveled; FIG. 1C, velocity; FIG. 1D, center zone frequency). Results are mean+SEM of five mice per group. *p<0.05; **p<0.01; ***p<0.001.
C57/BL6 mice (8-10 week-old) received lentiviral GLDC shRNA (1×107 IFU/mouse in 100 μl Hank's Balanced Salt Solution or HBSS) once via tail-vein injection. The group of control mice received only 100 μl HBSS via tail-vein injection. Oral administration of cinnamein occurred from 7 d after lenti-GLDC shRNA injection. Mice were treated with 50 mg/kg body wt/d of cinnamein daily via gavage. Cinnamein (Sigma) was solubilized in 100 μl 0.5% methyl cellulose before gavage. […]
After 10 d of treatment with cinnamein and cinnamic acid, mice were monitored for locomotor activities by open field test. […] Each mouse was placed individually on the center of the arena and the performance was monitored by the live video tracking system.

[2] = test system: lenti-GLDC shRNA-insulted mice; assay: Barnes maze, spatial learning and memory in lenti-GLDC shRNA-insulted mice; format: in vivo, C57/BL6 mice; conditions: 50 mg/kg body wt/d daily via gavage, after 10 d of treatment; for latency in reaching the target hole: FIG. 2B; for errors in reaching the target hole: FIG. 2C
Description: as §1, with “spatial learning and memory was” for “locomotor activities were”, “Barnes maze (A,” for “open field (FIG. 1A,”, “B, latency; C, errors).” for “FIG. 1B, distance traveled; FIG. 1C, velocity; FIG. 1D, center zone frequency).”
(§2) C57/BL6 mice (8-10 week-old) received lentiviral GLDC shRNA (1×107 IFU/mouse in 100 μl Hank's Balanced Salt Solution or HBSS) once via tail-vein injection. The group of control mice received only 100 μl HBSS via tail-vein injection. Oral administration of cinnamein occurred from 7 d after lenti-GLDC shRNA injection. Mice were treated with 50 mg/kg body wt/d of cinnamein daily via gavage. Cinnamein (Sigma) was solubilized in 100 μl 0.5% methyl cellulose before gavage. Therefore, one group of lenti-GLDC shRNA-insulted mice were also treated with 100 μl 0.5% methyl cellulose as vehicle control. For comparison, one group of lenti-GLDC shRNA-insulted mice were also treated with 50 mg/kg body wt/d of cinnamic acid daily via gavage.
Next, mice were monitored for spatial learning and memory by Barnes maze. Here, mice were trained for two consecutive days followed by examination on day three. During training, the overnight food-deprived mouse was placed in the middle of the maze in a 10 cm high cylindrical start chamber. After 10 s, the start chamber was removed to allow the mouse to move around the maze to find out the color food chips in the baited tunnel.

[3] = test system: lenti-GLDC shRNA-insulted mice; assay: Level of glycine in serum and cortex of lenti-GLDC shRNA-insulted mice (fluorometric assay kit); format: in vivo, C57/BL6 mice; conditions: 50 mg/kg body wt/d daily via gavage, 14 d of treatment; for level of glycine in serum: FIG. 3A; for level of glycine in cortex: FIG. 3B
Description: C57/BL6 mice (8-10 week old) received lentiviral GLDC shRNA (1×107 IFU/mouse in 100 μl Hank's Balanced Salt Solution or HBSS) once via tail-vein injection. Therefore, control mice also received 100 μl HBSS via tail-vein. From 7 d after lenti-GLDC shRNA injection, mice were treated with cinnamein (50 mg/kg body wt/d) and cinnamic acid (50 mg/kg body wt/d) daily via gavage. After 14 d of treatment, the level of glycine was measured in serum (A) and cortex (B) by using a fluorometric assay kit (Biovision). Each mouse sample was run in triplicate. Results are mean+SEM of five mice per group. ***p<0.001.
as §2
(§3) On 14 d of treatment, mice were sacrificed, and level of glycine was measured in serum and brain.

[4] = Observation of side effects during drug treatment; format: in vivo, C57/BL6 mice; conditions: 50 mg/kg body wt/d daily via gavage, during drug treatment (14 d)
Description: as §2, §3

[5] = test system: B6EiC3Sn a/A-Otc^spf-ash/J (Otc^spf-ash) mice; assay: Barnes maze, cognitive functions in OTC knockout mice (animal model of urea cycle disorders); format: in vivo; conditions: 50 mg/kg body weight/d orally via gavage for 15 days, FIG. 4A-C
Description: Eight-week old B6EiC3Sn a/A-Otc^spf-ash/J (Otc^spf-ash) mice were treated with cinnamein (50 mg/kg body weight/d) and cinnamic acid (50 mg/kg body weight/d) orally via gavage for 15 days followed by monitoring cognitive functions by Barnes maze (FIG. 4A, representative track plots summarizing the overall activity of mice on the apparatus recorded with a Noldus camera and visualized by Ethovision XT software; FIG. 4B, errors; FIG. 4C, latency). Results are mean+SEM of three mice per group. ***p<0.001.
Cognitive deficit is common in individuals with inherited urea cycle disorders (UCDs). […] See for example Qureshi et al., “Ornithine Transcarbamylase Deficiency in Mutant Mice I. Studies on the Characterization of Enzyme Defect and Suitability as Animal Model of Human Disease,” (1979) Pediat. Res. 13: pp 807-811; Hodges et al., “The spf^ash mouse: A missense mutation in the ornithine transcarbamylase gene also causes aberrant mRNA splicing,” (1989) Proc. Natl. Acad. Sci. USA 86: pp. 4142-4146. OTC knockout B6EiC3Sn a/A-Otc^spf-ash/J (Otc^spf-ash) mice were obtained from the Jackson Lab. Cinnamein was purchased from Sigma. Cinnamic acid was bought from Spectrum Chemicals.

| Structure (SMILES) | locomotor activities (heat map, total distance travelled, velocity, center zone frequency) [1] | latency in reaching the target hole [2] | errors in reaching the target hole [2] | level of glycine in serum [3] | level of glycine in cortex [3] | side effects including hair loss, weight loss, diarrhea, or untoward infection [4] | cognitive functions (Barnes maze errors and latency) [5] |
| --- | --- | --- | --- | --- | --- | --- | --- |
| O=C(C=Cc1ccccc1)OCc1ccccc1 [cinnamein, 3-phenyl-2-propenoic acid phenylmethyl ester] | improved locomotor activities | significantly reduced | significantly reduced | significantly inhibited | significantly inhibited | No other side effects were observed | recovers cognitive functions |
| O=C(O)C=Cc1ccccc1 [cinnamic acid] | improved locomotor activities | significantly reduced | significantly reduced | significantly inhibited | significantly inhibited | No other side effects were observed | recovers cognitive functions |
